This is an account of results in patent US20230013823A1, “INHIBITORS OF HUMAN IMMUNODEFICIENCY VIRUS REPLICATION” (VIV HEALTHCARE UK (No. 5) LIMITED, priority 2019, published 2023).

The structures appear in SMILES notation.

What is called EC50 is the midpoint of the concentration-response curve. As usually defined, the CC50 is the concentration that lowers cell viability or growth by half. Low values mean harm at low concentration, high ones better tolerance by the cells.

Series [1] has as its system recombinant NL4-3 virus (Renilla luciferase in nef). Put plainly: HIV cell culture assay (antiviral activity, luciferase readout in MT-2 cells). Type of series: cell-based. As to conditions: Renilla, NL43. The method, then:
HIV cell culture assay—MT=2 cells, 293T cells and the proviral DNA clone of NL4-3 virus were obtained from the NIH AIDS Research and Reference Reagent Program. MT=2 cells were propagated in RPMI 1640 media supplemented with 10% heat inactivated fetal bovine serum (FBS), […] penicillin G and up to 100 units/mL streptomycin. The 293T cells were propagated in DMEM media supplemented with 10% heat inactivated FBS, […] penicillin G and […] streptomycin. A recombinant NL4-3 proviral clone, in which a section of the nef gene was replaced with the Renilla luciferase gene, was used to make the reference virus used in these studies. The recombinant virus was prepared through transfection of the recombinant NL4-3 proviral clone into 293T cells using Transit-293 Transfection Reagent from Mirus Bio LLC (Madison, Wis.). Supernatent was harvested after 2-3 days and the amount of virus present was titered in MT=2 cells using luciferase enzyme activity as a marker by measuring luciferase enzyme activity. Luciferase was quantitated using the EnduRen Live Cell Substrate from Promega (Madison, Wis.). Antiviral activities of compounds toward the recombinant virus were quantified by measuring luciferase activity in MT=2 cells infected for 4-5 days with the recombinant virus in the presence of serial dilutions of the compound.
The 50% effective concentration (EC50) was calculated by using the exponential form of the median effect equation where (Fa)=1/[1+(ED50/drug conc.)m] (Johnson V A, Byington R T. Infectivity Assay. In Techniques in HIV Research. ed. Aldovini A, Walker B D. 71-76. New York: Stockton Press. 1990). The 50% inhibitory concentration (EC50) was calculated by using the exponential form of the median effect equation where percent inhibition=1/[1+(EC50/drug concentration)m], where m is a parameter that reflects the slope of the concentration-response curve.

Series [2] is described as follows: Compound cytotoxicity, XTT-based colorimetric assay. The class given is cell-based. As to conditions: human; uninfected MT2 cells, day 4, XTT. Here is the method:
Compound cytotoxicity and the corresponding CC50 values were determined using the same protocol as described in the antiviral assay except that uninfected cells were used. Cytotoxicity was assessed on day 4 in uninfected MT2 cells by using an XTT (2,3-bis[2-Methoxy-4-nitro-5-sulfophenyl]-2H-tetrazolium-5-carboxyanilide inner salt)-based colorimetric assay (Sigma-Aldrich, St Louis, Mo.).
Background: Formazan colour is commonly taken as a measure of viable cells.

For the molecule `Cn1nc(NS(C)(=O)=O)c2c(Cl)ccc(-n3c([C@H](Cc4cc(F)cc(F)c4)NC(=O)Cn4nc(C(F)F)c5c4C(F)(F)[C@@H]4C[C@H]54)nc4cc(-c5ncc(F)cc5F)ccc4c3=O)c21` (atropisomer, axis not shown; (P)) [Example 7, N—((S)-1-((3P)-3-(4-chloro-1-methyl-3-(methylsulfonamido)-1H-indazol-7-yl)-7-(3,5-difluoropyridin-2-yl)-4-oxo-3,4-dihydroquinazolin-2-yl)-2-(3,5-difluorophenyl)ethyl)-2-((3bS,4aR)-3-(difluoromethyl)-5,5-difluoro-3b,4,4a,5-tetrahydro-1H-cyclopropa[3,4]cyclopenta[1,2-c]pyrazol-1-yl)acetamide], the EC50 in series [1] turned out to be 0.17 nM. Also, the CC50 at 4 days in series [2] is above 500 nM.
The corresponding values for `C[C@H](C(=O)N[C@@H](Cc1cc(F)cc(F)c1)c1nc2cc(-c3ccn(CC(C)(F)F)n3)ccc2c(=O)n1-c1ccc(Cl)c2c(NS(C)(=O)=O)nn(C)c12)n1ccc(C2CC2)n1` (atropisomer, axis not shown; (P)) [Example 65, (R)—N—((S)-1-((3P)-3-(4-chloro-1-methyl-3-(methylsulfonamido)-1H-indazol-7-yl)-7-(1-(2,2-difluoropropyl)-1H-pyrazol-3-yl)-4-oxo-3,4-dihydroquinazolin-2-yl)-2-(3,5-difluorophenyl)ethyl)-2-(3-cyclopropyl-1H-pyrazol-1-yl)propanamide] are 0.17 nM and above 100 nM.
For `Cn1nc(NS(C)(=O)=O)c2c(Cl)ccc(-n3c([C@H](Cc4cc(F)cc(F)c4)NC(=O)Cn4nc(C(F)F)c5c4C(F)(F)[C@@H]4C[C@H]54)nc4cc(-c5cccc(C(F)F)c5F)ccc4c3=O)c21` (atropisomer, axis not shown; (P)) [Example 18, N—((S)-1-((3P)-3-(4-chloro-1-methyl-3-(methylsulfonamido)-1H-indazol-7-yl)-7-(3-(difluoromethyl)-2-fluorophenyl)-4-oxo-3,4-dihydroquinazolin-2-yl)-2-(3,5-difluorophenyl)ethyl)-2-((3bS,4aR)-3-(difluoromethyl)-5,5-difluoro-3b,4,4a,5-tetrahydro-1H-cyclopropa[3,4]cyclopenta[1,2-c]pyrazol-1-yl)acetamide], in that order: 0.54 nM and above 500 nM.
The corresponding values for `Cn1nc(NS(C)(=O)=O)c2c(Cl)ccc(-n3c([C@H](Cc4cc(F)cc(F)c4)NC(=O)Cn4nc(C(F)F)c5c4C(F)(F)[C@@H]4C[C@H]54)nc4cc(-c5ccn(CCC(C)(F)F)n5)ccc4c3=O)c21` (atropisomer, axis not shown; (P)) [Example 52, N—((S)-1-((3P)-3-(4-chloro-1-methyl-3-(methylsulfonamido)-1H-indazol-7-yl)-7-(1-(3,3-difluorobutyl)-1H-pyrazol-3-yl)-4-oxo-3,4-dihydroquinazolin-2-yl)-2-(3,5-difluorophenyl)ethyl)-2-((3bS,4aR)-3-(difluoromethyl)-5,5-difluoro-3b,4,4a,5-tetrahydro-1H-cyclopropa[3,4]cyclopenta[1,2-c]pyrazol-1-yl)acetamide] are 0.068 nM and above 100 nM.
For `Cn1nc(NS(C)(=O)=O)c2c(Cl)ccc(-n3c([C@H](Cc4cc(F)cc(F)c4)NC(=O)Cn4nc(C(F)F)c5c4C(F)(F)[C@@H]4C[C@H]54)nc4cc(-c5csc(C(F)(F)F)n5)ccc4c3=O)c21` (atropisomer, axis not shown; (P)) [Example 1, N—((S)-1-((3P)-3-(4-chloro-1-methyl-3-(methylsulfonamido)-1H-indazol-7-yl)-4-oxo-7-(2-(trifluoromethyl)thiazol-4-yl)-3,4-dihydroquinazolin-2-yl)-2-(3,5-difluorophenyl)ethyl)-2-((3bS,4aR)-3-(difluoromethyl)-5,5-difluoro-3b,4,4a,5-tetrahydro-1H-cyclopropa[3,4]cyclopenta[1,2-c]pyrazol-1-yl)acetamide], the concentration giving a half-maximal response (EC50) in series [1] was 0.091 nM. The molecule also yielded a CC50 at 4 days in series [2] above 100 nM.
For `Cn1nc(NS(C)(=O)=O)c2c(Cl)ccc(-n3c([C@H](Cc4cc(F)cc(F)c4)NC(=O)Cn4nc(C(F)F)c5c4C(F)(F)[C@@H]4C[C@H]54)nc4cc(-c5cnn(C6CC6)c5)ccc4c3=O)c21` (atropisomer, axis not shown; (P)) [Example 40, N—((S)-1-((3P)-3-(4-chloro-1-methyl-3-(methylsulfonamido)-1H-indazol-7-yl)-7-(1-cyclopropyl-1H-pyrazol-4-yl)-4-oxo-3,4-dihydroquinazolin-2-yl)-2-(3,5-difluorophenyl)ethyl)-2-((3bS,4aR)-3-(difluoromethyl)-5,5-difluoro-3b,4,4a,5-tetrahydro-1H-cyclopropa[3,4]cyclopenta[1,2-c]pyrazol-1-yl)acetamide], in that order: 0.082 nM and above 100 nM.
For `Cn1nc(NS(C)(=O)=O)c2c(Cl)ccc(-n3c([C@H](Cc4cc(F)cc(F)c4)NC(=O)Cn4nc(C(F)F)c5c4C(F)(F)[C@@H]4C[C@H]54)nc4cc(-c5ccnc(C(F)F)n5)ccc4c3=O)c21` (atropisomer, axis not shown; (P)) [Example 56, N—((S)-1-((3P)-3-(4-chloro-1-methyl-3-(methylsulfonamido)-1H-indazol-7-yl)-7-(2-(difluoromethyl)pyrimidin-4-yl)-4-oxo-3,4-dihydroquinazolin-2-yl)-2-(3,5-difluorophenyl)ethyl)-2-((3bS,4aR)-3-(difluoromethyl)-5,5-difluoro-3b,4,4a,5-tetrahydro-1H-cyclopropa[3,4]cyclopenta[1,2-c]pyrazol-1-yl)acetamide], in that order: 0.017 nM and above 100 nM.
For `Cn1nc(NS(C)(=O)=O)c2c(Cl)ccc(-n3c([C@H](Cc4cc(F)cc(F)c4)NC(=O)Cn4nc(C(F)F)c5c4C(F)(F)[C@@H]4C[C@H]54)nc4cc(-c5ccn(CC(C)(C)C)n5)ccc4c3=O)c21` (atropisomer, axis not shown; (P)) [Example 29, N—((S)-1-((3P)-3-(4-chloro-1-methyl-3-(methylsulfonamido)-1H-indazol-7-yl)-7-(1-neopentyl-1H-pyrazol-3-yl)-4-oxo-3,4-dihydroquinazolin-2-yl)-2-(3,5-difluorophenyl)ethyl)-2-((3bS,4aR)-3-(difluoromethyl)-5,5-difluoro-3b,4,4a,5-tetrahydro-1H-cyclopropa[3,4]cyclopenta[1,2-c]pyrazol-1-yl)acetamide], in that order: 0.21 nM and above 500 nM.
As to `Cn1nc(NS(C)(=O)=O)c2c(Cl)ccc(-n3c([C@H](Cc4cc(F)cc(F)c4)NC(=O)Cn4nc(C(F)F)c5c4C(F)(F)[C@@H]4C[C@H]54)nc4cc(-c5ccc(F)c(C(F)(F)F)n5)ccc4c3=O)c21` (atropisomer, axis not shown; (P)) [Example 30, N—((S)-1-((3P)-3-(4-chloro-1-methyl-3-(methylsulfonamido)-1H-indazol-7-yl)-7-(5-fluoro-6-(trifluoromethyl)pyridin-2-yl)-4-oxo-3,4-dihydroquinazolin-2-yl)-2-(3,5-difluorophenyl)ethyl)-2-((3bS,4aR)-3-(difluoromethyl)-5,5-difluoro-3b,4,4a,5-tetrahydro-1H-cyclopropa[3,4]cyclopenta[1,2-c]pyrazol-1-yl)acetamide], the EC50 in series [1] worked out at 0.22 nM. The cytotoxic concentration (CC50) at 4 days in series [2] was above 500 nM.
For `Cn1nc(NS(C)(=O)=O)c2c(Cl)ccc(-n3c([C@H](Cc4cc(F)cc(F)c4)NC(=O)Cn4nc(C(F)F)c5c4C(F)(F)[C@@H]4C[C@H]54)nc4cc(-n5cc(C(F)(F)F)cn5)ccc4c3=O)c21` (atropisomer, axis not shown; (P)) [Example 38, N—((S)-1-((3P)-3-(4-chloro-1-methyl-3-(methylsulfonamido)-1H-indazol-7-yl)-4-oxo-7-(4-(trifluoromethyl)-1H-pyrazol-1-yl)-3,4-dihydroquinazolin-2-yl)-2-(3,5-difluorophenyl)ethyl)-2-((3bS,4aR)-3-(difluoromethyl)-5,5-difluoro-3b,4,4a,5-tetrahydro-1H-cyclopropa[3,4]cyclopenta[1,2-c]pyrazol-1-yl)acetamide], in that order: 0.17 nM and above 100 nM.
